Molecules are shown by their SMILES. Where two headings read alike, the source gives them in different places.

The IC50 is the concentration at which inhibition is half-maximal.

For the assay, the target named is T1, human mPGES-1 (Homo sapiens, UniProt O14684).
T1 construct: made in house; host or cells: COS-1 cells (transient transfection; microsomal fraction used as enzyme)
T1 sequence (O14684 1-152): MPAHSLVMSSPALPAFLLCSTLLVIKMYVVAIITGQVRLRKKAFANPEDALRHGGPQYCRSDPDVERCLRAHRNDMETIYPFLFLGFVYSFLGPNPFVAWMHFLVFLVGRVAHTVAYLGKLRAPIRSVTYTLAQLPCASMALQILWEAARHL
As to the kind of experiment: Test for mPGES-1 inhibitory activity (microsomal enzyme, PGE2 EIA). It is filed as biochemical. To be noted: 4° C., 4 minutes, read-out: h mPGES1 IC50. Summed up: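 Enzyme source was microsomes from COS-1 cells transiently expressing human mPGES-1, in sodium phosphate pH 7.2 with 2.5 mM GSH, 1 mM EDTA and 2% DMSO final. After a 15 min preincubation with compound at 4 °C, 1 μM PGH2 (final) reacted for 4 min at 4 °C.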

The mark [1] stands for this setting: microsomes from COS-1 cells transfected with human mPGES-1 cDNA, substrate PGH2 1 μM, PGE2 measured by EIA.
[2] abbreviates: microsomes of COS-1 cells transfected with human mPGES-1 cDNA, PGH2 1 μM, PGE2 by EIA.

As to `O=C(NCc1ccc(C(F)(F)F)c(-c2nc(C(F)(F)F)cc(=O)[nH]2)c1F)C1CCN(c2cccc(OC(F)(F)F)c2)CC1` [Example 74, N-{2-fluoro-3-[6-oxo-4-(trifluoromethyl)-1,6-dihydropyrimidin-2-yl]-4-(trifluoromethyl)benzyl}-1-[3-(trifluoromethoxy)phenyl]piperidine-4-carboxamide], the IC50 under setting [1] is < 1 nM.
As to `CCc1cc(=O)[nH]c(-c2c(C(F)(F)F)ccc(CNC(=O)[C@H]3C[C@H](OCc4ccc(C(F)(F)F)cc4)C3)c2F)n1` [Example 200, trans-N-[3-(4-ethyl-6-oxo-1,6-dihydropyrimidin-2-yl)-2-fluoro-4-(trifluoromethyl)benzyl]-3-{[4-(trifluoromethyl)benzyl]oxy}cyclobutane-1-carboxamide], under setting [2], the IC50 stood at 6.5 nM.
`CCc1nc(-c2c(C(F)(F)F)ccc(CNC(=O)[C@H]3C[C@H](OCc4cc(F)cc(Cl)c4)C3)c2F)[nH]c(=O)c1F` [Example 245, trans-3-[(3-chloro-5-fluorobenzyl)oxy]-N-[3-(4-ethyl-5-fluoro-6-oxo-1,6-dihydropyrimidin-2-yl)-2-fluoro-4-(trifluoromethyl)benzyl]cyclobutane-1-carboxamide]: under setting [2], the IC50 is < 1 nM.
On the same count and under the same terms, under `O=c1cc(C(F)F)nc(-c2c(C(F)(F)F)ccc(CNC(=O)[C@H]3C[C@H](OCc4cc(F)cc(Cl)c4)C3)c2F)[nH]1` [Example 177, trans-3-[(3-chloro-5-fluorobenzyl)oxy]-N-{3-[4-(difluoromethyl)-6-oxo-1,6-dihydropyrimidin-2-yl]-2-fluoro-4-(trifluoromethyl)benzyl}cyclobutane-1-carboxamide] stands 10 nM.
Regarding `O=C(NCc1ccc(C(F)(F)F)c(-c2nc(C(F)(F)F)cc(=O)[nH]2)c1F)C1CCN(c2ccc(F)cc2)CC1` [Example 58, N-{2-fluoro-3-[6-oxo-4-(trifluoromethyl)-1,6-dihydropyrimidin-2-yl]-4-(trifluoromethyl)benzyl}-1-(4-fluorophenyl)piperidine-4-carboxamide], the IC50 under setting [1] was < 1 nM.
Same read-out and setting: under `Cc1cc(=O)[nH]c(-c2c(C(F)(F)F)ccc(CNC(=O)C3CCN(c4ccc(OC(F)(F)F)cn4)CC3)c2F)n1` [Example 53, N-[2-fluoro-3-(4-methyl-6-oxo-1,6-dihydropyrimidin-2-yl)-4-(trifluoromethyl)benzyl]-1-[5-(trifluoromethoxy)pyridin-2-yl]piperidine-4-carboxamide] stands 49 nM; under `Cc1nc(-c2c(C(F)(F)F)ccc(CNC(=O)[C@H]3CC[C@H](OCc4cccc(C(F)(F)F)c4)CC3)c2F)[nH]c(=O)c1F` [Example 130, trans-N-[2-fluoro-3-(5-fluoro-4-methyl-6-oxo-1,6-dihydropyrimidin-2-yl)-4-(trifluoromethyl)benzyl]-4-{[3-(trifluoromethyl)benzyl]oxy}cyclohexane-1-carboxamide], < 1 nM.
On the same count and under the same terms, under `O=c1cc(C(F)(F)F)nc(-c2c(C(F)(F)F)ccc(CNC(=O)[C@H]3C[C@H](OCc4cccc(Cl)c4)C3)c2F)[nH]1` [Example 138, trans-3-[(3-chlorobenzyl)oxy]-N-{2-fluoro-3-[6-oxo-4-(trifluoromethyl)-1,6-dihydropyrimidin-2-yl]-4-(trifluoromethyl)benzyl}cyclobutane-1-carboxamide] stands < 1 nM; under `O=C(NCc1ccc(C(F)(F)F)c(-c2nccc(=O)[nH]2)c1F)C1CCN(c2ccc(C(F)(F)F)cn2)CC1` [Example 28, N-[2-fluoro-3-(6-oxo-1,6-dihydropyrimidin-2-yl)-4-(trifluoromethyl)benzyl]-1-[5-(trifluoromethyl)pyridin-2-yl]piperidine-4-carboxamide], < 1 nM.
Same read-out and setting: under `O=C(NCc1ccc(C(F)(F)F)c(-c2nc(C(F)(F)F)cc(=O)[nH]2)c1F)C1CCN(c2ccc(Cl)c(Cl)c2)CC1` [Example 66, 1-(3,4-dichlorophenyl)-N-{2-fluoro-3-[6-oxo-4-(trifluoromethyl)-1,6-dihydropyrimidin-2-yl]-4-(trifluoromethyl)benzyl}piperidine-4-carboxamide] stands < 1 nM.
For the molecule `Cc1cnc2ccc(N3CCC(C(=O)NCc4ccc(C(F)(F)F)c(-c5nc(C(F)(F)F)cc(=O)[nH]5)c4F)CC3)nn12` [Example 3, N-{2-fluoro-3-[6-oxo-4-(trifluoromethyl)-1,6-dihydropyrimidin-2-yl]-4-(trifluoromethyl)benzyl}-1-(3-methylimidazo[1,2-b]pyridazin-6-yl)piperidine-4-carboxamide], the IC50 under setting [1] is < 1 nM.
Turning to `Cc1cc(=O)[nH]c(-c2c(C(F)(F)F)ccc(CNC(=O)[C@H]3C[C@H](OCc4cccc(C(F)(F)F)c4)C3)c2F)n1` [Example 182, trans-N-[2-fluoro-3-(4-methyl-6-oxo-1,6-dihydropyrimidin-2-yl)-4-(trifluoromethyl)benzyl]-3-{[3-(trifluoromethyl)benzyl]oxy}cyclobutane-1-carboxamide], under setting [2], the IC50 came out at 12 nM.
On to `Cc1cccc(N2CCC(C(=O)NCc3ccc(C(F)(F)F)c(-c4nc(C(F)(F)F)cc(=O)[nH]4)c3F)CC2)c1` [Example 59, N-{2-fluoro-3-[6-oxo-4-(trifluoromethyl)-1,6-dihydropyrimidin-2-yl]-4-(trifluoromethyl)benzyl}-1-(3-methylphenyl)piperidine-4-carboxamide], for which the IC50 under setting [1] was found to be 4.2 nM.
With `O=C(NCc1ccc(C(F)(F)F)c(-c2nc(-c3ccc(C(F)(F)F)cn3)cc(=O)[nH]2)c1F)C1CCN(c2ccc3nccn3n2)CC1` [Example 267, N-(2-fluoro-3-{6-oxo-4-[5-(trifluoromethyl)pyridin-2-yl]-1,6-dihydropyrimidin-2-yl}-4-(trifluoromethyl)benzyl)-1-(imidazo[1,2-b]pyridazin-6-yl)piperidine-4-carboxamide], the IC50 under setting [2] is < 1 nM.
As for `Cc1nc(-c2c(C(F)(F)F)ccc(CNC(=O)[C@H]3C[C@H](OCc4cccc(Cl)c4)C3)c2F)[nH]c(=O)c1F` [Example 213, trans-3-[(3-chlorobenzyl)oxy]-N-[2-fluoro-3-(5-fluoro-4-methyl-6-oxo-1,6-dihydropyrimidin-2-yl)-4-(trifluoromethyl)benzyl]cyclobutane-1-carboxamide], the IC50 under setting [2] is 11 nM.
As to `CCc1nc(-c2c(C(F)(F)F)ccc(CNC(=O)C3CCN(c4ccc(C#N)cc4Cl)CC3)c2F)[nH]c(=O)c1F` [Example 90, 1-(2-chloro-4-cyanophenyl)-N-[3-(4-ethyl-5-fluoro-6-oxo-1,6-dihydropyrimidin-2-yl)-2-fluoro-4-(trifluoromethyl)benzyl]piperidine-4-carboxamide], the IC50 under setting [1] was 1.6 nM.
For the molecule `Cc1cc(=O)[nH]c(-c2c(C(F)(F)F)ccc(CNC(=O)[C@H]3C[C@H](OCc4cccc(Cl)c4)C3)c2F)n1` [Example 179, trans-3-[(3-chlorobenzyl)oxy]-N-[2-fluoro-3-(4-methyl-6-oxo-1,6-dihydropyrimidin-2-yl)-4-(trifluoromethyl)benzyl]cyclobutane-1-carboxamide], the IC50 under setting [2] was < 1 nM.
With `O=c1cc(C(F)(F)F)nc(-c2c(C(F)(F)F)ccc(CNC(=O)[C@H]3C[C@H](Oc4cccc(Cl)c4)C3)c2F)[nH]1` [Example 253, trans-3-(3-chlorophenoxy)-N-{2-fluoro-3-[6-oxo-4-(trifluoromethyl)-1,6-dihydropyrimidin-2-yl]-4-(trifluoromethyl)benzyl}cyclobutane-1-carboxamide], the IC50 under setting [2] came out at 1 nM.
As to `Cc1cc(=O)[nH]c(-c2c(C(F)(F)F)ccc(CNC(=O)[C@H]3C[C@H](OCc4ccccc4Cl)C3)c2F)n1` [Example 178, trans-3-[(2-chlorobenzyl)oxy]-N-[2-fluoro-3-(4-methyl-6-oxo-1,6-dihydropyrimidin-2-yl)-4-(trifluoromethyl)benzyl]cyclobutane-1-carboxamide], under setting [2], the IC50 is < 1 nM.
As for `O=c1cc(C(F)(F)F)nc(-c2c(C(F)(F)F)ccc(CNC(=O)[C@H]3CC[C@H](OCc4ccc(F)c(F)c4)CC3)c2F)[nH]1` [Example 115, trans-4-[(3,4-difluorobenzyl)oxy]-N-{2-fluoro-3-[6-oxo-4-(trifluoromethyl)-1,6-dihydropyrimidin-2-yl]-4-(trifluoromethyl)benzyl}cyclohexane-1-carboxamide], the IC50 under setting [1] was 21 nM.
In the case of `O=c1cc(C(F)(F)F)nc(-c2c(C(F)(F)F)ccc(CNC(=O)[C@H]3C[C@@H](OCc4ccc(Cl)cc4)C3)c2F)[nH]1` [Example 141, cis-3-[(4-chlorobenzyl)oxy]-N-{2-fluoro-3-[6-oxo-4-(trifluoromethyl)-1,6-dihydropyrimidin-2-yl]-4-(trifluoromethyl)benzyl}cyclobutane-1-carboxamide], the IC50 under setting [1] is < 1 nM.
`O=C(NCc1ccc(C(F)(F)F)c(-c2nc3c(c(=O)[nH]2)CCC3)c1F)C1CCN(c2ccc(C(F)(F)F)cn2)CC1` [Example 41, N-[2-fluoro-3-(4-oxo-4,5,6,7-tetrahydro-3H-cyclopenta[d]pyrimidin-2-yl)-4-(trifluoromethyl)benzyl]-1-[5-(trifluoromethyl)pyridin-2-yl]piperidine-4-carboxamide]: the IC50 under setting [1] is 26 nM.
On to `O=C(NCc1ccc(C(F)(F)F)c(-c2nc(C(F)(F)F)cc(=O)[nH]2)c1F)C1CCN(c2ccc(C(F)(F)F)nc2)CC1` [Example 21, N-{2-fluoro-3-[6-oxo-4-(trifluoromethyl)-1,6-dihydropyrimidin-2-yl]-4-(trifluoromethyl)benzyl}-1-[6-(trifluoromethyl)pyridin-3-yl]piperidine-4-carboxamide], for which the half-maximal inhibitory concentration (IC50) under setting [1] is < 1 nM.
